The results in this text go back to PMC3914206.

What all share (assay type): binding
Settings in all cases: Compound Concentration 10 µM

In experiment [1] the target is T1, panel of 442 kinases (Homo sapiens, UniProt Q8WTQ7).
T1 construct: purchased KINOMEscan
T1 sequence (Q8WTQ7 1-553): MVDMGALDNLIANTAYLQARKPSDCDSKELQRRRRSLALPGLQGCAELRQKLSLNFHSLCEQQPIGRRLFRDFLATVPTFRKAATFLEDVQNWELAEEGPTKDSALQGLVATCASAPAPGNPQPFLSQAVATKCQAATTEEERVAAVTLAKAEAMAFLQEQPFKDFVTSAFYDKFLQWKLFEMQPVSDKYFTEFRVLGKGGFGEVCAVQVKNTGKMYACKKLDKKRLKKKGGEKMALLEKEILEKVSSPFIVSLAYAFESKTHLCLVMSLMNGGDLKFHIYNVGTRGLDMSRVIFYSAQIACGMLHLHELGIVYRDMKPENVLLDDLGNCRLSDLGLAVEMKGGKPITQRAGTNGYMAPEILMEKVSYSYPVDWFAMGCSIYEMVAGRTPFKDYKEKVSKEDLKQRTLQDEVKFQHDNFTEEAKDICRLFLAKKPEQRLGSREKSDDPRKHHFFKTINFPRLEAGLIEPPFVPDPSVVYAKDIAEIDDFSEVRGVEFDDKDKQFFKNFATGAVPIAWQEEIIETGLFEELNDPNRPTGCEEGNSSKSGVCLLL
An excerpt: (§1) We assessed the selectivity of members of this scaffold using the KINOMEscan methodology across a near comprehensive panel of 442 kinases [[18,27]].

For experiment [2], the target named is T2, panel of 442 kinases (Homo sapiens, UniProt P04049).
T2 construct: purchased KINOMEscan
Source text: as §1

The target of experiment [3] is T3, panel of 442 kinases (Homo sapiens, UniProt O00750).
T3 construct: purchased KINOMEscan
Source text: as §1

T2 sequence (P04049 whole entry): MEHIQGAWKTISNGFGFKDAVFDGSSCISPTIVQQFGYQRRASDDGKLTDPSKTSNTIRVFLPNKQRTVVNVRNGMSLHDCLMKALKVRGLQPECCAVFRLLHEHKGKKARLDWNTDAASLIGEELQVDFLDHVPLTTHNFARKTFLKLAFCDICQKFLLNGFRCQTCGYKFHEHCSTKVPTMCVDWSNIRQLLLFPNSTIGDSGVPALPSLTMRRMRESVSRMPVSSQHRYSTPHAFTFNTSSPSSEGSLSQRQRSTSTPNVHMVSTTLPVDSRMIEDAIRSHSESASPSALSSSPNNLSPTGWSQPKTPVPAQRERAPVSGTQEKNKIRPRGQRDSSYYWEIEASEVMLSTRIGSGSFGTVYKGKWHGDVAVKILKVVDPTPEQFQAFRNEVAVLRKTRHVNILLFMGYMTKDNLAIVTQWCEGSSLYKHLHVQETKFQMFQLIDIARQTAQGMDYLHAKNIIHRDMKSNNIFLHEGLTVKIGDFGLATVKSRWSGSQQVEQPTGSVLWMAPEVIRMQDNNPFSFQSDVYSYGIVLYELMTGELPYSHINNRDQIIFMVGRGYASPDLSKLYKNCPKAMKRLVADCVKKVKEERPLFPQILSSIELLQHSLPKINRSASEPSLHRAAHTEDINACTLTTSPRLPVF
T3 sequence (O00750 whole entry): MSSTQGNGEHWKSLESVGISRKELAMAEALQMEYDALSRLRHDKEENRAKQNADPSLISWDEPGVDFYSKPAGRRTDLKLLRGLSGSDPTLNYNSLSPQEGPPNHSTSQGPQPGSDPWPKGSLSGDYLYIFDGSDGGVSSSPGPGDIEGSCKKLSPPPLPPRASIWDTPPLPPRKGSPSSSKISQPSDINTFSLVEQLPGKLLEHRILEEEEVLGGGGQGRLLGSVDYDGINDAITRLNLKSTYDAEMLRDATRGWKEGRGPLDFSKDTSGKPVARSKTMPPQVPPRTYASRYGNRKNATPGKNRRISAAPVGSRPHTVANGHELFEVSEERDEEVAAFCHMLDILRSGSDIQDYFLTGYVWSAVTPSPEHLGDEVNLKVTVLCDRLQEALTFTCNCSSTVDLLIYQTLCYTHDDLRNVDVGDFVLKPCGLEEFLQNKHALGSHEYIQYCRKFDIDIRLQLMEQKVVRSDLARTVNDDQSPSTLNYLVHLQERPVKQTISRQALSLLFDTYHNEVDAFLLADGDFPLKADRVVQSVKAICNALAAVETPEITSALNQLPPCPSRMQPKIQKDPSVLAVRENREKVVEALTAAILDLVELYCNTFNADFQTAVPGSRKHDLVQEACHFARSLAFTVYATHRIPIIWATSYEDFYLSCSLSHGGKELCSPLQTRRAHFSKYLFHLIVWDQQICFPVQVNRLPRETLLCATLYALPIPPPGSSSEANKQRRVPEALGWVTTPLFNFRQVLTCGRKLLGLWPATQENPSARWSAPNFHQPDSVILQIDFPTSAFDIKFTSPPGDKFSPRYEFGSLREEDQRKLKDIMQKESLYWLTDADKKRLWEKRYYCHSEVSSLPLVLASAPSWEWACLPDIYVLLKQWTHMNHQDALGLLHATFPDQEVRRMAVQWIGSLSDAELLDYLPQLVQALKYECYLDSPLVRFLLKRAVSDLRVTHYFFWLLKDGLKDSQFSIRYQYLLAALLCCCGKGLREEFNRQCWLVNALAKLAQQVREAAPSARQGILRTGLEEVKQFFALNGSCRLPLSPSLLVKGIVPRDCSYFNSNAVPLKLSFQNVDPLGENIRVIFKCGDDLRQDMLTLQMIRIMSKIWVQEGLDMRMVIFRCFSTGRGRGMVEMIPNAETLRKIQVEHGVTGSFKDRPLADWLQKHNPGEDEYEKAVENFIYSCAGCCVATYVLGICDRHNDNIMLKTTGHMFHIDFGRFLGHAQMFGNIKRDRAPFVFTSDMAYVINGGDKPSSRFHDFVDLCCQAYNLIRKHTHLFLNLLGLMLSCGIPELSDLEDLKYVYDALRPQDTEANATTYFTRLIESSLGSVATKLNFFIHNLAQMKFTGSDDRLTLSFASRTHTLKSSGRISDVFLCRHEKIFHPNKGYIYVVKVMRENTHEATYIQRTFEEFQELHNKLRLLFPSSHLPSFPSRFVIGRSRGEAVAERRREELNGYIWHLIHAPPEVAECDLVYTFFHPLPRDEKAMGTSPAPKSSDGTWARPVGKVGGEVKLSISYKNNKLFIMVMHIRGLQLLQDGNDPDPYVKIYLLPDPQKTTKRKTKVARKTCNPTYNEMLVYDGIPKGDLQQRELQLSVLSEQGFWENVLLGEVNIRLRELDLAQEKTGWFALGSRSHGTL

With `COc1cc(C(=O)N2CCC(N3CCN(C)CC3)CC2)ccc1Nc1ncc2c(n1)N(C1CCCC1)c1ccccc1C(=O)N2C` [Compound 25, 11-cyclopentyl-2-((2-methoxy-4-(4-(4-methylpiperazin-1-yl)piperidine-1-carbonyl)phenyl)amino)-5-methyl-5H-benzo[e]pyrimido[5,4-b][1,4]diazepin-6(11H)-one], in experiment [1], the “KINOMEscan: GRK7” value was 94. Further, the “KINOMEscan: RAF1” value in experiment [2] came out at 100. In experiment [3], the “KINOMEscan: PIK3C2B” value stood at 100.
With `COc1cc(C(=O)N2CCC(N3CCN(C)CC3)CC2)ccc1Nc1ncc2c(n1)N(C)c1ccccc1C(=O)N2C` [15 (LRRK2-IN-1)], the “KINOMEscan: GRK7” value in experiment [1] came out at 100. Further, the “KINOMEscan: RAF1” value in experiment [2] was 100. Moreover, the “KINOMEscan: PIK3C2B” value in experiment [3] is 100.
Consider `CCOc1cc(C(=O)N2CCC(N3CCN(C)CC3)CC2)ccc1Nc1ncc2c(n1)N(C1CCCC1)c1ccccc1C(=O)N2C` [Compound 26], for which, in experiment [1], the “KINOMEscan: GRK7” value is given as 100. The “KINOMEscan: RAF1” value in experiment [2] came out at 100. Besides, the “KINOMEscan: PIK3C2B” value in experiment [3] is listed as 100.
